One series concerns Br-001 xenograft tumors. As to the kind of experiment: Patient-derived TNBC xenograft (PDX), PO, racemate vs E1. Format: in vivo, NSG mice. The conditions noted are these: 20 mg/kg PO. Here is the method: The second PDX tumor model experiment was conducted to assess the efficacy of VNLG-152R versus VNLG-152E1 following PO administration. When the tumor volumes had reached about 100 mm^3, the mice were randomly divided into three groups of five mice each. The control group received vehicle (PO) and the other two groups received VNLG-152R (20 mg/kg, PO, once daily), and VNLG-152E1 (20 mg/kg, PO, once daily) five days/week. These treatments continued for 15 days and the tumors were measured and processed as described above.
For orientation: A xenograft is tissue or cells of one species grown in another, often human tumour cells in immunodeficient mice.

Another series concerns mTORC1 signaling. Description: Western blot of mTORC1 signaling in MDA-MB-231 and MDA-MB-468 cells. Format: cell-based, human. The conditions noted are these: 72 h. Here is the method:
(§1) MDA-MB-231, MDA-MB-468, MDA-MB-436, MDA-MB-453, HCC-1806, and MFM-223 cells were purchased from American Type Culture Collection (ATCC, Manassas, VA, USA), and authenticated at the Biopolymer/Genomics Core Facility, University of Maryland Baltimore. Cells were tested for mycoplasma contamination at the University of Maryland Marlene and Stewart Greenebaum Cancer Center (UMGCC) Translational Shared Service. Cells were cultured in the recommended media supplemented with 10% FBS and plated 1 day prior to treatment. Cells were treated with the indicated dose and time in the figure at 37 °C in 5% CO2. Protein lysates were harvested in RIPA lysis buffer (Sigma). Western blotting was done as described previously with antibodies described above.
For orientation: Immunoblotting shows a protein as a band on a membrane.

For another series, the system named is MDA-MB-468 cells. As to the kind of experiment: Head-to-head MTT antiproliferative assay, 6-day exposure. Format: cell-based, human. Here is the method: (§2) Figure 2 VNLG-152R inhibits mTORC1 signaling and the production of pro-inflammatory cytokines. (A) MDA-MB-231 and MDA-MB-468 cells were treated with the indicated concentrations of VNLG-152R for 72 h. Cell lysates were analyzed by immunoblotting with the indicated antibodies. (B) Head-to-head antiproliferative effects of VNLG-152R and eFT508 on MDA-MB-231 and MDA-MB-468 cells. The dose-response curves were generated from MTT assays after 6-day exposure to different concentrations of the compounds. Each point is a mean of replicates from three independent experiments. (C–E) MDA-MB-231 cell were treated with the indicated concentration of VNLG-152R or eFT508 for 72 h. Cell supernatants were collected, and the indicated cytokines were quantitated by Multiplex Luminex assay.
(§3) Cell growth inhibition assay was performed as described previously. For cell growth experiment, cells were treated with the VNLG-152R, VNLG-152E1 or VNLG-15E2 for 7 days. MTT assay was performed at the end of the experiment. Results represent the mean ± standard deviation of three independent experiments.
On the technique in general: Formazan colour is commonly taken as a measure of viable cells.

Another series deals with MDA-MB-231 cells. Described as above. Format: cell-based, human. The protocol:
as §2, §3

In a further series the target is T1, Mnk1 (Homo sapiens, UniProt Q9BUB5).
T1 construct: incubated with recombinant full length Mnk1 proteins or cell lysates overnight at 4 °C; GST
T1 sequence (Q9BUB5 whole entry): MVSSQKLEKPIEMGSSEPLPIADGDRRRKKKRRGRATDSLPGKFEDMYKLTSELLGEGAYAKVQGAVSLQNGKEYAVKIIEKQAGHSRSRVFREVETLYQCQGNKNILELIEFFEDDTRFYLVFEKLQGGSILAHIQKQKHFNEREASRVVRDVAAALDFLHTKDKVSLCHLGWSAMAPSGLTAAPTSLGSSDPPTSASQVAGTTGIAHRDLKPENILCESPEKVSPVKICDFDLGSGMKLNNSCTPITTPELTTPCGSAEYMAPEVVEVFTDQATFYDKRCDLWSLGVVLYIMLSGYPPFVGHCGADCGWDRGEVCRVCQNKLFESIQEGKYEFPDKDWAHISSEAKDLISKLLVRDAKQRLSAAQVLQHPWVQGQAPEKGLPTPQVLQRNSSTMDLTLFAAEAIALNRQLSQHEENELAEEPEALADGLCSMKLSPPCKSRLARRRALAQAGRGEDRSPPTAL
Description: Surface plasmon resonance (OpenSPR) binding to immobilized GST-Mnk1. The conditions noted are these: SPR, 1.25, 10 and 30 µM, 1:1 Langmuir model, 30 °C, scouting analysis; read-out: dissociation constant (KD). Here is the method: Purified recombinant Mnk1 protein with GST tag (2.5 µg/mL) was fixed on GST sensor chip (Nicoya) by capture-coupling, then VNLG-152R (1.25, 10 and 30 µM) were injected (flow rate of 20 µL/min) sequentially into the chamber in running buffer (PBS-T with 10% DMSO). The interaction of Mnk1 with VNLG-152R was detected by Open SPRTM (Nicoya Lifesciences, Kitchener, ON, Canada) at 30 °C. The chip was regenerated with regeneration solution (10 mM glycine-HCL) at a flow rate of 150 µL/min. The close curve fitting to the sensograms were calculated by global fitting curves (1:1 Langmuir binding model). The data was retrieved and analyzed with TraceDraw software (Kitchener, ON, Canada).

Series [1] relates to panel of 6 human TNBC cell lines. Description: MTT cell growth assay, summary over the panel. Format: cell-based. The following applies: Homo sapiens, 168 h, 7 days. The protocol:
Figure 3 In vitro characterization, pharmacokinetics and toxicity profile of VNLG-152R and its two enantiomers. (A) HPLC chromatograms racemic VNLG-152R (left panel) and the resolved enantiomers VNLG-152E1 and VNLG-152E2 (right panel). The conditions of HPLC procedure are presented in Supplementary Materials. (B) Table summarizing GI50 values (µM) each cell line treated with VNLG-152R and its enantiomers. TNBC cell subtypes were treated with listed compound (0.1 nmol/L–100 µmol/L) for 7 days and the GI50 values for the anti-proliferative effects of the compounds were determined from dose response curves (by a nonlinear regression analysis using Graph Pad Prism). Data represents the results from six independent experiments for each cell line. (C) Plasma concentration versus time profile after intravenous (IV, 2 mg/kg each, top panel) or oral (PO, 20 mg/kg each, bottom panel) of VNLG-152R (red), VNLG-152E1 (purple) and VNLG-152E2 (blue) to female CD1 mice. Values represent the mean plasma concentrations from three mice per time point. (D) Table of the pharmacokinetic parameters of various compounds after IV and PO dosing. AUC = area under the curve, T1/2 = elimination half-life, Cmax = maximum plasma concentration, F (%) = oral bioavailability. (E) Effects of VNLG-152R, VNLG-152E1 and VNLG-152E2 on body weight and clinical observations at chronic dose termination of study. Three different doses, i.e., 10, 25, and 50 mg/kg/day (formulated in 40% β-cyclodextrin in saline) of each compound were administered daily by oral gavage for 14 days. Each group consisted of three mice. Loss in body weight, a clinical sign of toxicity was observed during the 14 days of dosing and the maximum tolerated dose (MTD) was estimated following established procedures. Changes in body weight were scored on a scale of 0–4 as follows as described under methods. […]

The test system of a further series is EMT-related proteins. Description: Western blot of EMT-related proteins in MDA-MB-231 and MDA-MB-468 cells. Format: cell-based, human. The following applies: 24 h. The protocol: as §1
Another series relates to Mnk1/2. Further details: method as in PMID 24504069. The conditions noted are these: cited from earlier work.

By TGI is commonly meant how far tumour growth fell short of that in controls. High values mean much slowing of growth, low ones little slowing of growth. Usually GI50 stands for the concentration that inhibits growth by half. One may read the pKd as the Kd on a negative log10 scale, so that one unit is a factor of ten.

pKd: −log10 of the molar value. Like-named read-outs stand apart in the source and are kept apart here.

`CC1=C(/C=C/C(C)=C/C=C/C(C)=C/C(=O)Nc2ccc(F)cc2)C(C)(C)CCC1n1ccnc1` (racemic) [VNLG-152R, 4-(±)-(1H-imidazol-1-yl)-N-(4-fluorophenyl)-(E)-retinamide]: the “changes in body weights” value in the series on Br-001 xenograft tumors is given as “No changes in body weights were observed”. The compound further had a TGI in the series on Br-001 xenograft tumors (5 days per week, 15 days) of 82%. For the same compound, the “depletion of p-mTOR (Ser2448), p4E-BP1, peIF4E and p-p70 S6K” value in the series on mTORC1 signaling was “strong dose-dependent depletion”. The 50% growth inhibitory concentration (GI50) is 0.5 µM in the series with MDA-MB-468 cells; 0.501 µM in the series with MDA-MB-468 cells (Homo sapiens, MDA-MB-468, 144 h); 0.89 µM in the series on MDA-MB-231 cells; 0.891 µM in the series with MDA-MB-231 cells (Homo sapiens, MDA-MB-231, 144 h); 0.97 µM in series [1] (mean over 6 TNBC cell lines, read-out: average GI50); 0.62 to 1.86 µM in series [1] (range over 6 TNBC cell lines, read-out: range of GI50). Moreover, the entries for the “fold difference of GI50 (eFT508 vs VNLG-152R)” value with MDA-MB-468 cells and with MDA-MB-231 cells were 105 fold and 8 fold, respectively. Besides, the negative logarithm of the Kd (pKd) on Mnk1 was 5.19. Moreover, the “expression of N-Cadherin, β-catenin, MMP-2, MMP-9, Snail, Slug, Vimentin and TCF/ZEB-1” value in the series with EMT-related proteins was “concentration-dependent decreases”. The “inhibition of Mnk1/2 kinase activities” value in the series with Mnk1/2 is reported as “no inhibition of Mnk1/2 kinase activities”.

(Values after paper PMC6468747 (Cancers, 2019).)
